Results on nine compounds are retold here after article PMC11134608, “UBR5 forms ligand-dependent complexes on chromatin to regulate nuclear hormone receptor stability” (Molecular cell, 2023).

Residues, ends and D or L forms follow the SMILES beside them. *: point of attachment. Cbz = O=C(OCc1ccccc1)*

Assay [1] deals with UBR5-RARA. Kind of assay: In vitro FLAG-UBR5 pull-down of His-tagged RARA. In kind it is binding, human. The settings on record: 50 μM ligand, anti-His western, 25 mM HEPES pH 7.4, 125 mM NaCl, 0.05% TWEEN-20. Here is the method:
12 μL of FLAG M2 slurry were equilibrated with binding buffer (25 mM HEPES pH 7.4, 125 mM NaCl, 0.05% TWEEN-20). The resin was pelleted and excess buffer removed. 60 μL of fresh binding buffer was re-added, followed by addition of 15 pmol (2.5 μL ofa6 μM solution) of purified FLAG-UBR5 protein and incubated on a rotating wheel at 4°C for 60–90 minutes. The resin was pelleted, excess buffer removed, and 150 μL fresh binding buffer (supplemented with 50 μM ligand of interest or DMSO) added, followed by 150 pmol protein (binding partner protein of interest) and incubated for another 60 minutes. The resin was pelleted, excess buffer removed and washed with 400 μL of binding buffer (supplemented with ligand of interest or DMSO), and this process was repeated three times. The resin was pelleted, excess buffer removed and 45 μL of binding buffer supplemented with 1 mg/mL 3xFLAG peptide was added to elute proteins over 30 minutes on a rotating wheel at room temperature. The resin was pelleted, and 40 μL of the supernatant was collected and mixed with 12 μL of 5xSDS gel loading buffer. 6 μL of these samples were applied to SDS-PAGE on a 4–20% gradient gel (Biorad). The gel was transferred to a nitrocellulose membrane using the Trans-Blot Turbo Transfer System (Biorad). Following blocking with 5% skim milk solution in TBST, primary antibodies targeting the NR proteins were added in TBST and incubated overnight at 4 °C. The following day, membranes were washed thrice with TBST buffer and incubated for 45 minutes with fluorescent secondary antibody (Invitrogen A11357), followed by three more washes with TBST. Imaging was performed on a Licor Odyssey system, scanned at 800 nm.

Assay [2] has as its system RARA/RXRA heterodimer (pre-formed complex with fluorescein-labelled NCOA1 peptide). Kind of assay: Fluorescence polarization, competitive reverse titration of unlabeled peptides. It is filed as binding, human. The note with it: with ATRA; 10 nM tracer, 0.5 μM RARA/RXRA, competitor 0–85 μM; 20 mM HEPES pH 7.4, 110 mM NaCl; room temperature; variable slope fit; duplicates. How it is done: Fluorescein-labelled NCOA1 peptide residues […] (Flc-[…]) was used as a fluorescent tracer as described previously.[71] Increasing amounts of RARA/RXRA heterodimer (0.1–26 μM final concentration) were mixed with tracer (10 nM final concentration) in a 384-well microplate (784076, Greiner) at room temperature. The interaction was measured in a final buffer containing 20 mM HEPES pH 7.4, 110 mM NaCl, 500 μM TCEP, 1% Glycerol, 0.1% (v/v) pluronic acid with or without 100 μM all-trans-retinoic acid. A PHERAstar FS microplate reader (BMG Labtech) equipped with a fluorescence polarization filter unit was used to determine changes in fluorescence polarization. The polarization units were converted to fraction bound, defined as (mPfree – mP) / (mPfree – mPbound), as described previously.[72] […]
A. RARAreporter degradation in HEK293cells withCRISPR-editedUBR5 deficientof itsHECTdomain inthepresence or absenceof ATRA (n=3 two-sided ttest).B. Ubiquitylation assayof a pseudo-primedRARA/RXRAsubstrate, generated as His-3Ub~RARA and His-3Ub~RXRA linearfusions in E.coli.Wild type UBR5 can rapidly branch and extend Ub chains on the substrate, however indicated mutants of the UBA domain severely hinder chain extension. […] Fluorescence polarization (FP) experiment showing forward titrationof RARA/RXRA intoa fluorescein-labelled NCOA1 peptide (residues 686-698). […]

The next assay has as its system 3Ub~RARA/RXRA substrate. As to the kind of experiment: In vitro ubiquitylation of pseudo-ubiquitylated RARA/RXRA. In kind it is biochemical, human. The text has this:
Input UBR5 variants -50 RARA/RXRA (µM)[NCOA1 peptide] uM
250 NCOA1 peptide (fluorescein-labeled probe): 5-FAM-[…]
200 LxxLLs UBR5 peptides (unlabeled): […]
Unlabelled peptide (µM)UBR5 peptide (µM)
0.0 +RARA/RXRA + retinoic acid
H A-1 A-2 Name Expressed UBR5 construct […]
round kDa WT LxxA LxxA WT 1-2799 kDa Input Backg WT LxxAA-1 LxxAA-2 ∆ UBR ∆ tandem ∆ UBA 250 […]
Figure S5. Interaction ofUBR5with NRs and LxxLL motifs,Related to Figure 3
A. RARAreporter degradation in HEK293cells withCRISPR-editedUBR5 deficientof itsHECTdomain inthepresence or absenceof ATRA (n=3 two-sided ttest).B. Ubiquitylation assayof a pseudo-primedRARA/RXRAsubstrate, generated as His-3Ub~RARA and His-3Ub~RXRA linearfusions in E.coli.Wild type UBR5 can rapidly branch and extend Ub chains on the substrate, however indicated mutants of the UBA domain severely hinder chain extension. C. Fluorescence polarization (FP) experiment showing forward titrationof RARA/RXRA intoa fluorescein-labelled NCOA1 peptide (residues 686-698). […]
Fluorescence polarization experiments depicting competitive reverse titrationwith indicated peptides against a pre-formed complex of RARA/RXRA with a fluorescein-labelled peptide of NCOA1 (residues 686-698) in the presence of ATRA. Titrations were performed in duplicate and binding constants determined after converting fluorescence polarization values tofraction bound of originalcomplex. […]

The test system of assay [3] is ATRA-induced gene expression in NB4 cells. Kind of assay: RNA sequencing of NB4 cells. The settings on record: NB4, MG132 or DMSO, ATRA 0, 8, 24 h. It is filed as cell-based, human. Here is the method: Cell lines were expanded, treated with ligand, and incubated at 37C. Cells were pelleted by centrifugation for 5 minutes, washed with cold PBS, and RNA was isolated by RNeasy kit (Qiagen) per manufacturer’s instructions. RNA was sent to Novogene for library preparation and sequencing, or prepared for sequencing (NEBNext, New England Biolabs) and sequenced on an Illumina NextSeq 550 sequencer.
Paired-end reads were aligned to the hg38.p13[81],[82] reference genome with the STAR[83] (v5.2.7b) aligner as part of the RSEM[99] command line tool. Gene transcript abundance was further quantified from aligned fragments using RSEM to generate a gene-by-sample matrix of expected counts. Differential expression was tested, as with the ChIP-seq data, using the DESeq[88],[93]2 and ashr[94] pipeline, this time calculating sample-specific scale factor offset using the method of median-ratio as implemented in the R package EBSeq[100] (v1.36.0). For plotting in heatmaps, genes were selected based on ChIP-seq peak annotation and subset.

The test system of another assay is RARA and UBR5. As to the kind of experiment: BRET assay of RARA and UBR5. It is filed as cell-based, human. The note with it: ± 9-cis RA, n = 3. The source says: Bioluminescence resonance energy transfer (BRET) experiments were done using the NanoBRET PPI kit (Promega, N1821) according to manufacturer’s instructions.
For orientation: In BRET a luciferase serves as donor, and the signal depends on an acceptor being close.

Assay [4] relates to UBR5-RARA. Kind of assay: UBR5 pull-down competition with NCOA1. It is filed as binding, human. The note with it: NCOA at 0.5, 5 and 10× molar excess relative to UBR5, with ATRA. The source says:
Figure 2. UBR5 competes with nuclear coactivators for the conserved hydrophobic cleft of NRs (A) Schematic of RARA domain architecture; NTD, N-terminal domain; DBD, DNA-binding domain; LBD, ligand-binding domain. (B) Degradation of RARA reporters containing 4–5 surface-exposed alanine mutations per helix, relative to untreated (DMSO) (n = 3 two-sided t test). See Figure S2 for detailed amino acid substitutions. (C) Degradation of RARA reporters containing glutamate-substituted residues within the H3/H4 hydrophobic cleft. (n = 3 two-sided t test). […] FLAG-UBR5 (15 pmol) was pre-bound to a large excess of His-RARA in the presence of ATRA and excess RARA protein washed away. Increasing amounts of full-length NCOA1 protein were then added to outcompete the UBR5-RARA interaction. NCOA was titrated with a 0.5, 5, and 10× molar excess relative to UBR5. (F) Relative abundances in RARA-GFP IP-MS of NCOR1, NCOA1, and UBR5 normalized to RARA abundance following 0, 4, and 16 h of ATRA treatment.
12 μL of FLAG M2 slurry were equilibrated with binding buffer (25 mM HEPES pH 7.4, 125 mM NaCl, 0.05% TWEEN-20). The resin was pelleted and excess buffer removed. 60 μL of fresh binding buffer was re-added, followed by addition of 15 pmol (2.5 μL ofa6 μM solution) of purified FLAG-UBR5 protein and incubated on a rotating wheel at 4°C for 60–90 minutes. […]

The next assay has as its system UBR5-RARA/RXRA. As to the kind of experiment: In vitro FLAG-UBR5 pull-down of His-tagged RARA/RXRA heterodimer. It is filed as binding, human. The note with it: 50 μM ligand, pull-down, anti-His western; 25 mM HEPES pH 7.4, 125 mM NaCl, 0.05% TWEEN-20.

Experimental for UBR5-RARA/RXRA: The resin was pelleted and excess buffer removed. 60 μL of fresh binding buffer was re-added, followed by addition of 15 pmol (2.5 μL ofa6 μM solution) of purified FLAG-UBR5 protein and incubated on a rotating wheel at 4°C for 60–90 minutes. The resin was pelleted, excess buffer removed, and 150 μL fresh binding buffer (supplemented with 50 μM ligand of interest or DMSO) added, followed by 150 pmol protein (binding partner protein of interest) and incubated for another 60 minutes. The resin was pelleted, excess buffer removed and washed with 400 μL of binding buffer (supplemented with ligand of interest or DMSO), and this process was repeated three times. The resin was pelleted, excess buffer removed and 45 μL of binding buffer supplemented with 1 mg/mL 3xFLAG peptide was added to elute proteins over 30 minutes on a rotating wheel at room temperature. The resin was pelleted, and 40 μL of the supernatant was collected and mixed with 12 μL of 5xSDS gel loading buffer. 6 μL of these samples were applied to SDS-PAGE on a 4–20% gradient gel (Biorad). The gel was transferred to a nitrocellulose membrane using the Trans-Blot Turbo Transfer System (Biorad). Following blocking with 5% skim milk solution in TBST, primary antibodies targeting the NR proteins were added in TBST and incubated overnight at 4 °C. […]

Turning to `CC1=C(/C=C/C(C)=C\C=C\C(C)=C\C(=O)O)C(C)(C)CCC1` [9-cis RA, 9-cis-retinoic acid], in the assay with UBR5-RARA [1], the “binding of RARA to UBR5” value is listed as “robustly induced binding of RARA to UBR5”.

Regarding LQPYLRELLSAKD [UBR5 aa1098], the Kapp in assay [2] is on record as 41.4 ± 2.8 µM.

Turning to “UBR5^Δ83–347: UBR5 lacking the UBA insertion entirely”, the “processivity in ubiquitylation assay” value in the assay on 3Ub~RARA/RXRA substrate was “severely hindered processivity in ubiquitylation assays”.

For the compound `CC(C)C[C@@H](C=O)NC(=O)[C@H](CC(C)C)NC(=O)[C@H](CC(C)C)NC(=O)OCc1ccccc1` [MG132] (Cbz-Leu-Leu-Leu-aldehyde), the “effect of proteasomal inhibition (MG132) on ATRA-induced transcription” value in assay [3] is recorded as “strongly decreased ATRA-induced transcription”.

For `CC1=C(/C=C/C(C)=C\C=C\C(C)=C\C(=O)O)C(C)(C)CCC1` [RA], the “RARA/UBR5 BRET luminescence” value with RARA and UBR5 is listed as “exhibited more luminescence than controls”.

Turning to “UBR5^V196K: UBR5 with a substitution at the ubiquitin-binding interface”, in the assay with 3Ub~RARA/RXRA substrate, the “processivity in ubiquitylation assay” value is listed as “severely hindered processivity in ubiquitylation assays”.

Consider NCOA1: full-length NCOA1 protein, for which the “UBR5 binding to RARA in presence of excess NCOA1” value in the assay with UBR5-RARA [4] was “impaired by an excess of full-length NCOA1”.

Turning to RLDLLYRLLTATN [UBR5 aa1251], the Kapp in assay [2] is listed as 3.1 ± 0.1 µM.

Turning to `CC1(C)CC=C(c2cnc3ccccc3c2)c2cc(C(=O)Nc3ccc(C(=O)O)cc3)ccc21` [BMS614], the “binding of RARA to UBR5” value in the assay on UBR5-RARA [1] is given as “prevented complex formation”. Further, the “binding of RARA/RXRA to UBR5” value with UBR5-RARA/RXRA is “similarly hindered”.
